The test system of assay [1] is pulmonary artery rings contracted by SRTX-6c. Put plainly: In vitro isolated vessel study, pulmonary artery rings, agonist SRTX-6c. More on the design: species or system rabbit. The settings on record: Table III, endothelium-denuded rings. The procedure: In Vitro (Isolated Vessel) Studies
Male New Zealand rabbits were killed by cervical dislocation and exsanguination. Femoral and pulmonary arteries were isolated, cleaned of connective tissue, and cut into 4 mm rings. The endothelium was denuded by placing the rings over hypodermic tubing (32 gauge for femoral rings and 28 gauge for pulmonary rings, Small Parts Inc., Miami, Fla.) and gently rolling them. Denuded rings were mounted in 20 mL organ baths containing Krebs-bicarbonate buffer (composition in mM: NaCl, 118.2; NaHCO3, 24.8; KCl, 4.6; MgSO4, 7.H2 O, 1.2; KH2 PO4, 1.2; CaCl2. 2H2 O; Ca--Na2 EDTA, 0.026; Dextrose, 10.0), that was maintained at 37° C., and gassed continuously with 5% CO2 in oxygen (pH 7.4). Resting tension was adjusted to 3.0 g for femoral and 4.0 g pulmonary arteries; the rings were left for 90 minutes to equilibrate. Tension was monitored with force displacement transducers (Grass FT03, Quincy, Mass.) and recorded on a polygraph (Gould 2108, Cleveland, Ohio) recorder.
Vascular rings were tested for a lack of functional endothelium, i.e., lack of an endothelium-dependent relaxation response to carbachol (1.0 μM) in norepinephrine (0.03 μM) contracted rings. […]
For the in vitro experiments compounds were dissolved in 0.1% acetic acid in distilled water. […] The antagonist activity of various compounds are expressed as PA2 values in Table III.

The target of a further assay is T1, ETA (Oryctolagus cuniculus, UniProt A5A8K3).
T1 construct: The cells used were rabbit renal artery vascular smooth muscle cells; endogenous in cells; host or cells: rabbit renal artery vascular smooth muscle cells
T1 sequence (A5A8K3 21-427): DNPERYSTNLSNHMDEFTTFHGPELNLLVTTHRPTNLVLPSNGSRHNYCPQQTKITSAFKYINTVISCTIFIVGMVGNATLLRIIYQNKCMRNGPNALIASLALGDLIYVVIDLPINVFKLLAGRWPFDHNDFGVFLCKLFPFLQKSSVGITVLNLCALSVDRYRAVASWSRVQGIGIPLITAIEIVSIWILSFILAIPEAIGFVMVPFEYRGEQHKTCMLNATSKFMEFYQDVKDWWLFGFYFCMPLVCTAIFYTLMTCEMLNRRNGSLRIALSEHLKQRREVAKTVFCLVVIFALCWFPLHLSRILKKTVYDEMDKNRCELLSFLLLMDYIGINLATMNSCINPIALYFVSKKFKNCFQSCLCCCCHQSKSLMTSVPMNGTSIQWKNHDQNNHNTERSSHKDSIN
As to the kind of experiment: Endothelin Receptor Binding Assay-A (ETA), intact cell binding of [125I]-ET-1. More on the design: species or system rabbit. The settings on record: Table IIa; rabbit renal artery vascular smooth muscle cells; read-out: Binding Assay IC50 at Receptor Subtypes ETA.

A further assay has as its target T2, ETB (Rattus norvegicus, UniProt P21451).
T2 construct: thaw one aliquot of frozen rat cerebellar membranes; from tissue; host or cells: rat cerebellar membranes
T2 sequence (P21451 27-442): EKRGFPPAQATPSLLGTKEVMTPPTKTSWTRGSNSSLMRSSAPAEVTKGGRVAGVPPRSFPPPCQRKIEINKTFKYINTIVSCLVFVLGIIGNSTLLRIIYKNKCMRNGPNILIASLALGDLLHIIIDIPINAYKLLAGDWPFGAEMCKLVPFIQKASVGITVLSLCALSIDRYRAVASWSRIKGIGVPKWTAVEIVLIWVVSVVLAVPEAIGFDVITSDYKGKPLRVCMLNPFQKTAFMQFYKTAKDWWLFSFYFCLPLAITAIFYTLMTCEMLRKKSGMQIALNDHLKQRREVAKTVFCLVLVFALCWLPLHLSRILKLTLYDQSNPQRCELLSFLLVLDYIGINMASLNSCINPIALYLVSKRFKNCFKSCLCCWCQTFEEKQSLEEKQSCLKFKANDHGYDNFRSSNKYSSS
As to the kind of experiment: Endothelin Receptor Binding Assay-B (ETB), [125I]-ET-1 binding in rat cerebellar membranes. The settings on record: Table IIa; rat cerebellar membranes; read-out: Binding Assay IC50 at Receptor Subtypes ETB.

Assay [2] deals with T3, endothelin-stimulated inositol phosphate accumulation in Rat-1 cells (Rattus norvegicus, UniProt P26684).
T3 sequence (P26684 21-426): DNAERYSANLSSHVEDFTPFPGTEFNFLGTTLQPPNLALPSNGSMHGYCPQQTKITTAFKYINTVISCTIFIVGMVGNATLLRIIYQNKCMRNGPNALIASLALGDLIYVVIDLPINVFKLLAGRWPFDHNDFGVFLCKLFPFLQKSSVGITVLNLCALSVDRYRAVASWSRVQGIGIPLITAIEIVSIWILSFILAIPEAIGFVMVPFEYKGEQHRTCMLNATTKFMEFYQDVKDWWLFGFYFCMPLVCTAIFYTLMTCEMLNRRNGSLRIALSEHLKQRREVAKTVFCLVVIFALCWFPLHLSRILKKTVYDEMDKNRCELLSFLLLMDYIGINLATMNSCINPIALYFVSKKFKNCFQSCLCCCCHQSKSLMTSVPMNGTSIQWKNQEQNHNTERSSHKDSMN
Put plainly: Inositol Phosphate Accumulation. In kind it is cell-based. The conditions noted are these: Table IIa; @ 10 μM; read-out: IP (Inositol Phosphate) Accumulation, % Inhibition. The protocol: Inositol Phosphate Accumulation
The functional activity of compounds of Formula I is determined in Rat-1 cells by measuring intra-cellular levels of second messengers. […] Antagonist activity is assessed as the ability of added compounds to reduce endothelin-stimulated inositol phosphate accumulation.

Assay [3] relates to ET-1 induced bronchoconstriction and tracheal smooth muscle contraction. The settings on record: allergic sheep; cited from earlier work.
A further assay deals with endotoxic shock. The conditions noted are these: mouse model of endotoxic shock; cited from earlier work.

Molecules are shown by their SMILES. Counter-ions that a name gives are not always drawn. Square brackets hold non-standard residues; d marks the D form. Peptide text beside a SMILES is read from it. dDip = N[C@@H](C(=O)O)C(c1ccccc1)c1ccccc1

In the case of `CC[C@H](C)[C@H](NC(=O)[C@H](CC(=O)O)NC(=O)[C@H](CC(C)C)NC(=O)[C@H](NC(C)=O)C(c1ccccc1)c1ccccc1)C(=O)N[C@H](C(=O)N[C@@H](Cc1c[nH]c2ccccc12)C(=O)O)[C@@H](C)CC` [Disodium salt of Ac-D-Dip-Leu-Asp-Ile-Ile-Trp] (Ac-[dDip]LDIIW-OH), in assay [1], the “pA2, rabbit pulmonary artery” value was 6.26.
In the case of `CC[C@H](C)[C@H](NC(=O)[C@H](CC(=O)O)NC(=O)[C@@H](Cc1ccccc1)NC(C)=O)C(=O)N[C@H](C(=O)N[C@@H](Cc1c[nH]c2ccccc12)C(=O)O)[C@@H](C)CC` [Example 11, Ac--D--Phe--Asp--Ile--Ile--Trp] (Ac-[dF]DIIW-OH), the IC50 at ETA was found to be 9.1 µM; on ETB, 9.3 µM. Moreover, the inhibition at 10 µM in assay [2] was determined as 30%.
For `CC(C)C[C@@H]1NC(=O)[C@@H](C(C)C)NC(=O)[C@@H]2CCCN2C(=O)[C@@H](CC(=O)O)NC(=O)[C@@H](Cc2c[nH]c3ccccc23)NC1=O` [BQ-123] (cyclo(L[dW][dD]P[dV])), the “effect on ET-1 induced bronchoconstriction and tracheal smooth muscle contraction” value in assay [3] is “block ET-1 induced bronchoconstriction and tracheal smooth muscle contraction”. Besides, the survival rate result in the assay with endotoxic shock was “significantly increased”.
Consider `CC[C@H](C)[C@H](NC(=O)[C@H](CC(=O)O)NC(=O)[C@H](CCC(=O)O)NC(=O)[C@H](NC(C)=O)C(c1ccccc1)c1ccccc1)C(=O)N[C@H](C(=O)N[C@@H](Cc1c[nH]c2ccccc12)C(=O)O)[C@@H](C)CC` [Example 20, Ac--D--Dip--Glu--Asp--Ile--Ile--Trp] (Ac-[dDip]EDIIW-OH), for which the values for the IC50 on ETA and on ETB were 0.025 µM and 0.052 µM, respectively. For the same compound, the “pA2, rabbit pulmonary artery” value in assay [1] is 6.85.
